Data set [1] deals with SH-SY5Ycells. On the set-up: method as in Ruangjaroon et al. [2017]. Conditions: incompletely differentiated cells; ref Ruangjaroon et al. [2017]; cited from earlier work.
Data set [2] concerns NT2 precursor cells. The experiment in a line: cells. The data set is classed as cell-based, human. Conditions: for IC50: Homo sapiens, read-out: IC50 migration (spec. EP). Here is the method:
(§1) As established before (Stern et al. [2014]), NT2 precursor cells were seeded in 96-mm bacteriological grade Petri dishes (Greiner, Hamburg, Germany) at a density of 4 × 10^6–5 × 10^6 cells per dish. Within 24 h, cells formed free-floating spherical aggregates of 300–800 µm diameter. On the first day, 10 ml of culture medium was added to each Petri dish. On the next days, medium with 10 μM retinoic acid (RA) was added and changed every 2–3 days by transferring the cell suspension to centrifuge tubes and centrifuge at 200 × g for 7 min. After 9 days in culture, aggregates were gently resuspended using a Pasteur pipette, and seeded at 60,000 cells per well into black 96-well plates with flat transparent bottom (Nunc). Plates were lined with poly-D-lysine and laminin (10 µg/ml each), equipped with silicone stoppers from the Oris Cell Migration Assay (AMS Biotechnology, Abingdon, UK). Cells were allowed to adhere overnight. On the next day, stoppers were pulled leaving a monolayer of cells with a circular hole of 2-mm diameter. […] After one wash in PBS, cells were fixed for 15 min in PFA, washed twice in PBS-T and stained with DAPI (0.5 µg/ml) for 5 min, followed by two washes in PBS. A black 96-hole plastic mask leaving a central circular area of 2-mm diameter for each well was clipped to the bottom of the plate. This allows viewing only those cells that had migrated into the free areas left by the silicone stoppers during seeding (Fig. 1b). Migration was quantified by taking two photographs of each well and measuring the distance of the migration front from the black margin of the mask in using ImageJ. Occasional asymmetries caused by slight inaccuracies of silicone stopper placement were compensated by averaging measurements in four quadrants per well. […] Average null-migration values were subtracted from migrated distance before evaluation.

Data set [3] has as its system differentiating NT2 cells. As to the kind of experiment: cells. The data set is classed as cell-based, human. The conditions noted are these: for IC50: NT2, 120 h, read-out: IC50 neuronal differentiation (ß-tub III, spec. EP). On the procedure: (§2) As established in our previous study (Stern et al. [2014]), cells were seeded into 96-well plates (Corning Costar, Kaiserslautern, Germany) at 80,000 cells per well and incubated in DMEM/F12 with 10 µM retinoic acid (RA) for 4 days (one media change). Cells were incubated for further 5 days (one media change) in media containing 10 µM RA and up to seven concentrations of a test compound. On day 9 (5-day exposition), cell viability was measured using a resazurin reduction assay (Trinova Biochem, Giessen, Germany). Subsequently, cells were fixed for 15 min in PFA and immunolabeled for ß-tubulin type III as above (Fig. 1a). For control purposes, photographs were taken at × 20 magnification as above. Neuronal differentiation was determined by measuring red fluorescence (excitation 568 nm, emission 603 nm) in a multiwell-plate reader (Infinite 200, TECAN, Germany). As a confirmation of the viability data, cell number was also quantified by measuring DAPI fluorescence (excitation 350 nm, emission 488 nm).

The nature of data set [4]: in vitro. The conditions noted are these: human.
Experimental: (§3) Dispersed cells were seeded into two identical poly-D-lysine (10 µg/ml) coated 96-well plates (Corning Costar, Kaiserslautern, Germany) at a density of 10,000 cells per well. Cultures were exposed to up to seven different concentrations of a test compound in DMEM/F12 (six technical replicates per concentration) for 24 h. One plate was immediately fixed in 4% paraformaldehyde in PBS (PFA) for 15 min. After 24 h, while a resazurin reduction assay (2 h) was performed on the other plate. […] Fixed cells were washed in PBS containing 0.1% Triton X100 (PBS-T) and immunolabeled for ß-tubulin type III (monoclonal anti ßtubIII, 1:20,000) using a red fluorescent secondary antibody (goat anti mouse-alexaFluor568, Invitrogen, Germany, 1:250) and DAPI (0.1 µg/ml) as nuclear counterstain. Cells were examined on a Zeiss Axiovert 200 inverted microscope equipped with a CoolSnap camera (Photometrics, Tucson, AZ, USA) and MetaMorph software (Molecular Devices, Sunnyvale, CA, USA), or a Zeiss Axiocam50 mono and Zeiss ZENlite 2.6 blue edition software. Two photographs/well at × 20 magnification were taken. Lengths of all neurites in the field of view were measured in ImageJ (http://imagej.nih.gov/ij) using the ‚segmented line ‘ tool (Fig. 1c) and divided by the number of ß-tubulin III-positive cells.
In data set [5] the test system is zebrafish embryo. Conditions: cited from earlier work.
Data set [6] has as its system insect GABAa receptors. On the set-up: method as in Hainzl et al. [1996]. Conditions: ref Hainzl et al. [1996]; cited from earlier work.
For data set [7], the system named is NT2 neurons. The experiment in a line: cells. The data set is classed as cell-based, human. From the text:
Two photographs/well at × 20 magnification were taken.

Data set [8] in a line: Resazurin reduction viability assay in the neuronal differentiation assay. In kind it is cell-based, human. Conditions: human. On the procedure:
as §2
(The colour change of resazurin is a common sign of viable cells or microbes.)

The subject of data set [9] is differentiating NT2 cells. Described as above. The data set is classed as cell-based, human. The conditions noted are these: differentiation assay. Here is the method:
as §2

Data set [10] in a line: Resazurin reduction viability assay in the cell migration assay. In kind it is cell-based. The conditions noted are these: human. On the procedure: as §1
The test system of data set [11] is N2a neuroblastoma cells. On the set-up: method as in Sidiropoulou et al. ([2011]). Conditions: ref Sidiropoulou et al. ([2011]); cited from earlier work.
Data set [12] deals with neurospheres. On the set-up: method as in Ishido and Suzuki ([2010]). Conditions: general cytotoxicity not tested; ref Ishido and Suzuki ([2010]); read-out: IC50 cell migration out of neurospheres; cited from earlier work.
The conditions of data set [13]: human.
Experimental: as §3
Data set [14] has as its system NT2 cells treated for 2 weeks with retinoic acid (2wkRA). Conditions: […].
Experimental: as §3
The mark [15] stands for this setting: yes = at least one concentration of rescuing compound with specific endpoint significantly less affected.
Where [16] appears, read: migration assay, 44 h exposure, > = highest tested concentration, read-out: IC50 general cytotoxicity (resazurin), unspec. EP.
The mark [17] stands for this setting: yes = at least one concentration of rescuing compound with specific endpoint significantly less affected than by test compound alone.

Where two headings read alike, the source gives them in different places.

The viability is a per cent measure of how many cells are alive, often set against a control.

Consider `N#Cc1nn(-c2c(Cl)cc(C(F)(F)F)cc2Cl)c(N)c1[S+]([O-])C(F)(F)F` (stereo not drawn) [Fipronil, 5-Amino-1-[2,6-dichloro-4-(trifluoromethyl)phenyl]-4-(trifluoromethylsulfinyl)pyrazole-3-carbonitrile], for which, in data set [1], the “Concentration reducing process outgrowth of vimentin-positive protrusions, but not viability” value was 25 µM. In addition, the “Concentrations with significant differences between viability and migration” value in data set [2] (44 h exposure) was at least 15.63 µM. Besides, the IC50 in [2] (44 h exposure) was 25.1 µM; in data set [3] (Homo sapiens, 5 days exposure), 14.8 µM; in data set [4], over 62.5 µM; in data set [7] (Homo sapiens, 24 h exposure, total neurite length/neuron, normalized to solvent control, read-out: IC50 neurite outgrowth (spec. EP)), over 62.5 µM; in [8] (differentiation assay, 5 days exposure, read-out: IC50 general cytotoxicity (resazurin), unspec. EP), 23.2 µM; in [9] (5 days exposure, read-out: IC50 general cytotoxicity (resazurin), unspec. EP), 23.4 µM. In data set [10] (setting [16]), the IC50 is over 62.5 µM. The “Rescue by NAC, migration” value in data set [2] (setting [15]) was “yes”. In data set [3] (Homo sapiens, NT2, 15.6 µM fipronil, read-out: ß-tubulin III-immunofluorescence (% of control)), the activity at 15.6 µM was under 50%. Also, the “Rescue by NAC, neuronal differentiation” value in [3] (setting [15]) is on record as “yes”. Also, in [5] (via reduction of gene expression for neuron/glia differentiation, ref Park et al. [2020]), the “Concentration inhibiting zebrafish neurogenesis” value is ~ 33 µM. The “Concentration disturbing development of motor circuits” value in data set [5] (zebrafish embryo, ref Stehr et al. [2006]) was 0.7 µM. For the same compound, in data set [6], the “Higher affinity to insect GABAa receptors than to vertebrate GABA receptors” value was “more than 100 fold”. In [8] (15.6 µM fipronil, read-out: General viability (% of control)), the viability is over 90%. In addition, the “Concentration reducing outgrowth of axon-like processes” value in [11] is 1 µM.
Consider `C=C(C)[C@H]1Cc2c(ccc3c2O[C@@H]2COc4cc(OC)c(OC)cc4[C@@H]2C3=O)O1` [Rotenone, (1S,6R,13S)-16,17-Dimethoxy-6-prop-1-en-2-yl-2,7,20-trioxapentacyclo[11.8.0.0^3,11.0^4,8.0^14,19]henicosa-3(11),4(8),9,14,16,18-hexaen-12-one], for which the “Concentration at which a significant reduction of migration could already be observed” value in data set [2] (44 h exposure) is given as 4.12 nM. For the same compound, the IC50 is 0.051 µM in [2] (44 h); 0.00518 µM in data set [3] (Homo sapiens); about 0.2 µM in data set [12]; 0.55 µM in [7] (Homo sapiens, Neuron, 24 h, read-out: IC50 neurite outgrowth (spec. EP)); 0.55 µM in data set [7] (Homo sapiens, Neuron, 24 h, read-out: IC50 spec. EP (neurite outgrowth)). Besides, the “Rescue by NAC, migration” value in data set [2] (setting [15]) is given as “no”. Also, the “Rescue by Y-27632, migration” value in data set [2] (setting [15]) is listed as “Yes”. For the same compound, the “ß-tubulin III-expression (% of control)” value in data set [3] (1.2 nM rotenone, highest non-cytotoxic concentration) was “below 75%”. In [3] (setting [15]), the “Rescue by NAC, neuronal differentiation” value is recorded as “no”. Further, the “Rescue by Y-27632, neuronal differentiation” value in data set [3] (setting [15]) was “No”. The same compound had an IC50 at 24 h in data set [13] of over 10 µM. For the same compound, the viability at 24 h, 10 µM in data set [13] (General cell viability (% of control), highest tested concentration, 10 µM rotenone) was about 80%. The “Highest non-cytotoxic concentration (viability > 90%)” value in data set [14] is on record as 123 nM; in data set [9] it was 1.2 nM. Moreover, the activity at 0.123 µM in data set [7] (Homo sapiens, Neuron, read-out: Neurite outgrowth (% of control)) is under 75%. Further, in [7] (setting [17]), the “Rescue by NAC, neurite outgrowth” value is given as “no”. The “Rescue by Y-27632, neurite outgrowth” value in data set [7] (setting [17]) is recorded as “Yes”. In addition, the IC50 at 5 days in data set [8] (differentiation assay, 5 days exposure, > = highest tested concentration, read-out: IC50 general cytotoxicity (resazurin), unspec. EP) was over 0.1 µM. Besides, in [8] (highest tested rotenone concentration (100 nM), read-out: General viability (% of control)), the viability at 5 days, 0.1 µM turned out to be 72%. The viability at 44 h, 0.333 µM in data set [10] (highest tested rotenone concentration (333 nM), read-out: General viability (% of control)) was over 70%. Moreover, the IC50 at 44 h in data set [10] (setting [16]) was over 0.333 µM.

Values taken from paper PMC8275550, “Developmental Neurotoxicity of Fipronil and Rotenone on a Human Neuronal In Vitro Test System” (Neurotoxicity Research, 2021).
